Test results from paper PMC10107299, “Neutralizing the Impact of the Virulence Factor LecA from Pseudomonas aeruginosa on Human Cells with New Glycomimetic Inhibitors” (Angewandte Chemie (International Ed. in English), 2023).

Columns and labels:
LecA-treated H1299 cells = assay: Scratch-wound healing assay; assay type: cell-based, human; details: 3.9 μM LecA; for Wound closure after 24 h: 100 μM inhibitor
Excerpt: The opportunistic bacterium P. aeruginosa depends on favorable circumstances to infect the host, such as a suppressed immunity or wounded skin.[34, 35] Chronic infection of wounds with P. aeruginosa increases the risk of nosocomial spread, are difficult to treat and after systemic dissemination can result in a fatal outcome in patients. In a previous study, we investigated the effect of the fucose‐binding P. aeruginosa lectin LecB on epithelial wound healing.[36] […] Here, we investigated whether LecA also impairs the same physiological process. To this end, H1299 cell monolayers were grown, and after scratching with a pipette tip, wound closure was monitored microscopically (Figure 5a). […] The mode of action of LecA in the wound healing process remains elusive. […] Importantly, when LecA was added to the cells together with L2 (10 μM and 100 μM, respectively), the wound healed at a similar rate to the control in absence of LecA. Remarkably, in presence of 10 μM L2, cell migration was restored to about 70 % compared to the negative control, and the wound closed by 80 % after 24 h of incubation with 100 μM L2 (Figure 5b). […]
using NIS-Element Confocal 4.20 from Nikon and ImageJ 1.52a from Laboratory for Optical and Computational Instrumentation.
Cell proliferation (MTT) assay […]
Subsequently, 10 μL of MTT labelling solution was added to each well and the cells were incubated for another 4 h at 37 °C. […] The next day, the absorbance of the samples was measured at 550 nm using a BioTek microplate reader (BioTek Instruments Inc., Winooski, VT, USA). The data were analyzed using Microsoft Excel and GraphPad Prism […]
2 x 10^5 cells were seeded on 12-well plates and formed a confluent monolayer after 24 h. […] The samples were imaged with an EVOS microscope (PEQLAB by VWR Life Sciences, Avantor Performance Materials Inc., Center Valley, PA, USA) and analyzed with ImageJ and Microsoft Excel. […] Experiment was repeated independently three times (N = 3) and evaluated with two tailed, […]

H1299 cells = assay: Cell proliferation (MTT) cytotoxicity assay; assay type: cell-based, human; details: 24 h; for Cytotoxicity on H1299 cells: 10–100 μM; for Inhibition of cell proliferation: 500 and 750 μM
Experimental: Additionally, the cytotoxicity of sulfonated ligands K2 and L2 on H1299 cells was evaluated prior to the invasion assay (Figure S12). […]
Cell proliferation (MTT) assay
The MTT assay (MTT Cell Proliferation Kit, Roche Holding AG, Basel, Switzerland) was used to evaluate the cytotoxicity of inhibitors on H1299 cells. 3.5 x 10^4 cells per well were transferred to a 96-well plate with a U-bottom. The cells were centrifuged at 1600 x g for 3 min at room temperature. The cell pellet was resuspended in 100 μL of inhibitor solutions (1–750 µM) and transferred to a 96-well flat-bottomed plate. The cells were incubated for 24 h at 37 °C.
Subsequently, 10 μL of MTT labelling solution was added to each well and the cells were incubated for another 4 h at 37 °C. Afterwards, 100 μL of the kit solubilization reagent were added to each well and the plate was incubated at 37 °C overnight. The next day, the absorbance of the samples was measured at 550 nm using a BioTek microplate reader (BioTek Instruments

| SMILES | Wound closure after 24 h (LecA-treated H1299 cells) | Cytotoxicity on H1299 cells (H1299 cells) | Inhibition of cell proliferation (H1299 cells) [%] | Cell migration / wound closure restored after 24 h (LecA-treated H1299 cells; 10 μM inhibitor) |
| --- | --- | --- | --- | --- |
| Cc1ccc(NC(=O)CCc2ccc(O[C@@H]3O[C@H](CO)[C@H](O)[C@H](O)[C@H]3O)cc2)cc1S(=O)(=O)O [Compound K2] | about 50% | did not exhibit significant toxicity | > 50 |  |
| O=C(CCc1ccc(O[C@@H]2O[C@H](CO)[C@H](O)[C@H](O)[C@H]2O)cc1)Nc1ccc(CCc2ccc(NC(=O)CCc3ccc(O[C@@H]4O[C@H](CO)[C@H](O)[C@H](O)[C@H]4O)cc3)cc2S(=O)(=O)O)c(S(=O)(=O)O)c1 [Compound L2] | 80% | did not exhibit significant toxicity | > 50 | about 70% |
